US20080262043A1, “Solid Crystalline Form of Pantoprazole Free Acid, Salts Derived Therefrom and Process for Their Preparation” (MEDICHEM, S.A., priority 2005, published 2008)

Assay: Solid-state stability of the crystalline form upon drying under vacuum
Format: physicochemical
Conditions: drying under vacuum at approximately 40° C. for approximately 2 hours

change in the crystalline structure upon drying: no change in the crystalline structure
SMILES: COc1ccnc(C[S+]([O-])c2nc3cc(OC(F)F)ccc3[nH]2)c1OC (stereo not shown) [Form III pantoprazole free acid, 5-(difluoromethoxy)-2-[[(3,4-dimethoxy-2-pyridinyl)methyl]sulfinyl]-1H-benzimidazole]
